Data on one substance can be found in US20130067618A1, “METHODS AND COMPOSITIONS FOR WEED CONTROL” (priority 2011, published 2013).

Series [1] concerns Amaranthus palmeri plants (glyphosate-resistant Palmer amaranth, "R-22"). The series is described as follows: Topical ssDNA ALS2 promoter oligonucleotide pool followed by Staple herbicide; plant height. Conditions: testing repeated with individual oligonucleotides. It counts as in vivo. The method, then:
In this example, growing Amaranthus palmeri plants were treated with a topically applied composition for inducing modulation of a target gene in a plant including (a) an agent for conditioning of a plant to transfer of the polynucleotides and (b) polynucleotides including at least one ssDNA polynucleotide strand including at least one segment of 18-21 contiguous nucleotides of the target gene in sense (S) orientation. […]
Approximately four-week old greenhouse grown Amaranthus palmeri plants (glyphosate-resistant Palmer amaranth, “R-22”) were used in this assays. […] The ssDNA ALS2 oligonucleotide composition was applied and followed 24 hours later by the herbicide treatment, Staple® (2-Chloro-6-{(4,6-dimethoxy-2-pyrimidinyl)thio}benzoic acid sodium salt, pyrithiobac sodium 85 percent, Dupont, Wilmington, Del.) at ¼×(27 g ai/ha (grams active ingredient per hectare) rate for the ssDNA ALS2 oligonucleotide treated plants and 1× rate (108 g ai/ha) for the untreated plants, five replications per treatment and the data is presented as percentage height of the untreated control. Plant height is determined at seven days after herbicide treatment.

In series [2] the test system is ALS inhibitor resistant Palmer amaranth plants (A3, ALS inhibitor herbicide biotype). In words: ALS_pro_S1 trigger followed by Staple or Classic herbicide on ALS inhibitor resistant plants. The series is classed as in vivo, Amaranthus palmeri. Conditions: dsDNA trigger, FIG. 2. The protocol:
Thus, ssDNA ALS2 oligonucleotide treatment followed by Staple® at 1 h and 24 h caused 50 percent and 60 percent growth reduction, relative to the untreated control, while Staple® alone at 27 (1 h and 24 h) and 108 (24 h) g ai/ha caused 35 percent, 30 percent, and 40 percent growth reduction, respectively. […] ALS_pro 51 dsDNA trigger molecule was applied to ALS inhibitor resistant Palmer amaranth plants (A3, ALS inhibitor herbicide biotype) followed by ALS inhibitor herbicides 1× Staple® at 108 g ai/ha or 2× Classic® (Chlorimuron Ethyl 25DF, Dupont, Willmington, Del., 2× rate is 70 g ai/ha) at +COC (crop oil concentrate) 24 hr after trigger application.

In series [3] the test system is Amaranthus palmeri plants (Palmer amaranth A3). In words: Tiling test of pooled trigger molecules to ALS large subunit gene, followed by Staple; visual injury. The series is classed as in vivo. The method, then: Approximately four-week old (3-4 inches tall) greenhouse grown Amaranthus palmeri plants (Palmer amaranth A3) were used in these assays. The plants were spray treated in a greenhouse with the ALStile composition, each composition having six trigger oligonucleotides (Table 3) and a formulation comprising 1 percent Silwet L-77 solution, 2 percent ammonium sulfate and 20 mM sodium phosphate and the concentration of each oligonucleotide was approximately 4 nmol. Spray solutions were prepared the same day as spraying and applied using a track sprayer with a FLATfan nozzle 9501E at 165 psi (pounds/square inch) at a rate of 93 g/ha (grams/hectare). The dsDNA ALStile pool oligonucleotide composition was applied and followed 24 hours later by the herbicide treatment, Staple® (2-Chloro-6-{(4,6-dimethoxy-2-pyrimidinyl)thio}benzoic acid sodium salt, pyrithiobac sodium 85 percent, Dupont, Wilmington, Del.) at 108 g/ha (grams per hectare), five replications per treatment and the data is presented as a visual score of percentage injury determined fourteen days after herbicide application.

[4] abbreviates: trigger pool (about 4 nmol each) or formulation, Staple @ 108 g/ha 24 h later, 14 days after herbicide, A3.

In the case of “ALSpro_S1: trigger TCTTCTCCGACTCTCACAA, SEQ ID NO:4202; ssDNA in Table 2, dsDNA in b81, dsRNA in Table 3 (chemistry not fully specified; listed as Amaranthus palmeri)”, the “ALS inhibitor herbicide enhancing activity of the individual trigger molecule” value in series [1] is reported as “effective trigger molecule”. In series [2] (then 1x Staple at 108 g ai/ha 24 hr after trigger), the “improvement of herbicide activity on ALS inhibitor resistant plants” value is “substantially improved the activity”. Further, in series [2] (then 2x Classic (70 g ai/ha) + COC 24 hr after trigger), the “improvement of herbicide activity on ALS inhibitor resistant plants” value is on record as “substantially improved the activity”. Further, the “herbicide enhancing activity relative to the formulation control” value in series [3] (A3 biotype, Staple @ 108 g/ha) is on record as “herbicide enhancing activity”. The “visual score of percentage injury, avg” value in series [3] (average of five replications, trigger pool or formulation, Staple @ 108 g/ha 24 h later, 14 days after herbicide, A3) came to 100%. Besides, in series [3] (setting [4]), the “visual score of percentage injury, Rep1” value turned out to be 100%; the “visual score of percentage injury, Rep2” value is 100%; the “visual score of percentage injury, Rep3” value is 100%; the “visual score of percentage injury, Rep4” value is recorded as 100%. The “visual score of percentage injury, Rep5” value in series [3] (setting [4]) is listed as 100%.
